We go through 18 compounds from patent publication US8735398B2 (Bristol-Myers Squibb Company, priority 2009, dated 2014).

As usually defined, the EC50 is the concentration needed to bring the measured effect to its halfway point.

The experiment concerns HCV 1b genotype. Briefly: HCV replicon assay (HCV-neo replicon cells, wild-type). The conditions noted are these: HCV 1b genotype replicon. The experiment is classed as cell-based, Hepatitis C virus. In outline:
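HCV-neo replicon cells (wild-type) and replicon cells carrying NS5A resistance substitutions were treated with compounds; assay per O'Boyle et al. 2005, with luciferase-reporter read-out variants also used.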
For orientation: In antiviral work, replicon cells carry a viral genome segment that copies itself.

[1] abbreviates: Hepatitis C virus, class symbol, read-out: EC50 Range against HCV 1b.
Setting [2] is: Hepatitis C virus, read-out: EC50 1b.
[3] abbreviates: Hepatitis C virus, class symbols, read-out: EC50 Range against HCV 1b.

Like-named read-outs stand apart in the source and are kept apart here.

As for `O=C(Nc1ccc(-c2cnc(-c3ccc(NC(=O)[C@@H]4CCCN4C(=O)C4(Cc5ccccc5)CCCN4)cc3)o2)cc1)[C@@H]1CCCN1C(=O)C1(Cc2ccccc2)CCCN1` (stereo partly drawn) [Example D-37, (2S,2′S)-N,N′-(1,3-oxazole-2,5-diyldi-4,1-phenylene)bis(1-((2-benzyl-2-pyrrolidinyl)carbonyl)-2-pyrrolidinecarboxamide)], the concentration for a half-maximal effect (EC50) under setting [1] is 1000 to 10000 nM. Same read-out and setting: in the case of `O=C(Nc1ccc(-c2cnc(-c3ccc(NC(=O)[C@@H]4CCCN4C(=O)[C@@H]4CCCN4)cc3)o2)cc1)[C@@H]1CCCN1C(=O)[C@@H]1CCCN1` [Example D-34, (2S,2′S)-N,N′-(1,3-oxazole-2,5-diyldi-4,1-phenylene)bis(1-((2S)-2-pyrrolidinylcarbonyl)-2-pyrrolidinecarboxamide)] it was 1000 to 10000 nM. Consider `O=C(Nc1ccc(-c2nnc(-c3ccc(NC(=O)[C@@H]4CCCN4C(=O)[C@H](O)c4ccccc4)cc3)o2)cc1)[C@@H]1CCCN1C(=O)[C@H](O)c1ccccc1` [RK-16, (2S,2′S)-N,N′-(1,3,4-oxadiazole-2,5-diyldi-4,1-phenylene)bis(1-((2R)-2-hydroxy-2-phenylacetyl)-2-pyrrolidinecarboxamide)], for which the concentration giving a half-maximal response (EC50) by setting is: under setting [1], under 4.57 nM; under setting [2], under 5 nM. As for `COc1cccc(CC(=O)N2CCC[C@H]2C(=O)Nc2ccc(-c3cnc(-c4ccc(NC(=O)[C@@H]5CCCN5C(=O)Cc5cccc(OC)c5)cc4)o3)cc2)c1` [XY-3, (2S,2′S)-N,N′-(1,3-oxazole-2,5-diyldi-4,1-phenylene)bis(1-((3-methoxyphenyl)acetyl)-2-pyrrolidinecarboxamide)], the EC50 is 100 to 999 nM under setting [3] and 321 nM under setting [2]. With `O=C(Nc1ccc(-c2nncn2-c2ccc(NC(=O)[C@@H]3C[C@@H](O)CN3C(=O)Cc3ccccc3)cc2)cc1)[C@@H]1C[C@@H](O)CN1C(=O)Cc1ccccc1` [OL-17, (2S,4R,2′S,4′R)-N,N′-(4H-1,2,4-triazole-3,4-diyldi-4,1-phenylene)bis[4-hydroxy-1-(phenylacetyl)-2-pyrrolidinecarboxamide]], the EC50 under setting [1] was in the range of 1000 to 10000 nM. In the case of `O=C(Nc1ccc(-c2cnc(-c3ccc(NC(=O)[C@@H]4CCCN4C(=O)C4CCCO4)cc3)o2)cc1)[C@@H]1CCCN1C(=O)C1CCCO1` (stereo partly drawn) [XY-31, (2S,2′S)-N,N′-(1,3-oxazole-2,5-diyldi-4,1-phenylene)bis(1-(tetrahydro-2-furanylcarbonyl)-2-pyrrolidinecarboxamide)], the EC50 was 4.57 to 99 nM under setting [3] and 54 nM under setting [2]. As for `O=C(Nc1ccc(-c2cnc(-c3ccc(NC(=O)[C@@H]4CCCN4C(=O)C4CCC4)cc3)o2)cc1)[C@@H]1CCCN1C(=O)C1CCC1` [JG-9, (2S,2′S)-N,N′-(1,3-oxazole-2,5-diyldi-4,1-phenylene)bis(1-(cyclobutylcarbonyl)-2-pyrrolidinecarboxamide)], the EC50 under setting [1] lay within 100 to 999 nM.

In the case of `CN(C)[C@@H](C(=O)N1CCC[C@H]1C(=O)N1CCC[C@H]1C(=O)Nc1ccc(-c2cnc(-c3ccc(NC(=O)[C@@H]4CCCN4C(=O)[C@@H]4CCCN4C(=O)[C@@H](c4ccccc4)N(C)C)cc3)o2)cc1)c1ccccc1` [Example D-38, (2S,2′S)-N,N′-(1,3-oxazole-2,5-diyldi-4,1-phenylene)bis(1-(((2S)-1-((2R)-2-(dimethylamino)-2-phenylacetyl)-2-pyrrolidinyl)carbonyl)-2-pyrrolidinecarboxamide)], the EC50 under setting [1] was in the range of 100 to 999 nM and the EC50 under setting [2] is 110 nM.

For `CC(C)(C)O[C@@H]1C[C@@H](C(=O)Nc2ccc(-c3cnc(-c4ccc(NC(=O)[C@@H]5C[C@@H](OC(C)(C)C)CN5C(=O)C5CCC5)cc4)o3)cc2)N(C(=O)C2CCC2)C1` [XY-64, (2S,4R,2′S,4′R)-N,N′-(1,3-oxazole-2,5-diyldi-4,1-phenylene)bis(4-tert-butoxy-1-(cyclobutylcarbonyl)-2-pyrrolidinecarboxamide)], the EC50 under setting [3] is 1000 to 10000 nM. With `COc1cccc2c(C(=O)N3CCC[C@H]3C(=O)Nc3ccc(-c4cnc(-c5ccc(NC(=O)[C@@H]6CCCN6C(=O)c6nc(Cl)cc7c(OC)cccc67)cc5)o4)cc3)nc(Cl)cc12` [OL-52, (2S,2′S)-N,N′-(1,3-oxazole-2,5-diyldi-4,1-phenylene)bis(1-((3-chloro-5-methoxy-1-isoquinolinyl)carbonyl)-2-pyrrolidinecarboxamide)], the EC50 is 100 to 999 nM under setting [1] and 30 nM under setting [2]. With `O=C(Nc1ccc(-c2cnc(-c3ccc(NC(=O)[C@@H]4CCCN4C(=O)c4cc(F)cc(F)c4)cc3)o2)cc1)[C@@H]1CCCN1C(=O)c1cc(F)cc(F)c1` [XY-7, (2S,2′S)-N,N′-(1,3-oxazole-2,5-diyldi-4,1-phenylene)bis(1-(3,5-difluorobenzoyl)-2-pyrrolidinecarboxamide)], under setting [3], the EC50 was 100 to 999 nM. With `COc1cc(C(=O)N2CCC[C@H](C(=O)Nc3ccc(-c4nnc(-c5ccc(NC(=O)[C@H]6CCCN(C(=O)c7cc(OC)c8ccccc8n7)C6)cc5)o4)cc3)C2)nc2ccccc12` [RK-26, (3S,3′S)-N,N′-(1,3,4-oxadiazole-2,5-diyldi-4,1-phenylene)bis(1-((4-methoxy-2-quinolinyl)carbonyl)-3-piperidinecarboxamide)], the EC50 under setting [1] lay within 1000 to 10000 nM. In the case of `O=C(Nc1ccc(-c2nc[nH]c2-c2ccc(NC(=O)[C@@H]3CCCN3C(=O)c3nccc4ccccc34)cc2)cc1)[C@@H]1CCCN1C(=O)c1nccc2ccccc12` [JG-48, (2S,2′S)-N,N′-(1H-imidazole-4,5-diyldi-4,1-phenylene)bis(1-(1-isoquinolinylcarbonyl)-2-pyrrolidinecarboxamide)], the concentration giving a half-maximal response (EC50) is 1000 to 10000 nM under setting [1] and 2340 nM under setting [2].

Regarding `CC(NC(=O)[C@@H](O)c1ccccc1)C(=O)Nc1ccc(-c2cc(-c3ccc(NC(=O)[C@H](C)NC(=O)[C@@H](O)c4ccccc4)cc3)n[nH]2)cc1` (stereo in doubt) [OL-43, (S)-2-((S)-2-hydroxy-2-phenylacetamido)-N-(4-(5-(4-((R)-2-((S)-2-hydroxy-2-phenylacetamido)propanamido)phenyl)-1H-pyrazol-3-yl)phenyl)propanamide], under setting [1], the EC50 was 4.57 to 99 nM. As for `CC(=O)N1CCC[C@H]1C(=O)Nc1ccc(-c2cnc(-c3ccc(NC(=O)[C@@H]4C[C@@H](O)CN4C(=O)OCc4ccccc4)cc3)o2)cc1` [MS-3, benzyl (2S,4R)-2-((4-(5-(4-((((2S)-1-acetyl-2-pyrrolidinyl)carbonyl)amino)phenyl)-1,3-oxazol-2-yl)phenyl)carbamoyl)-4-hydroxy-1-pyrrolidinecarboxylate], the EC50 under setting [1] was in the range of 100 to 999 nM.

With `O=C(Nc1ccc(-c2cnc(-c3ccc(NC(=O)[C@@H]4C[C@@H](O)CN4C(=O)c4ccccc4)cc3)o2)cc1)[C@@H]1C[C@@H](O)CN1C(=O)c1ccccc1` [XY-56, (2S,4R,2′S,4′R)-N,N′-(1,3-oxazole-2,5-diyldi-4,1-phenylene)bis(1-benzoyl-4-hydroxy-2-pyrrolidinecarboxamide)], under setting [3], the EC50 lay within 100 to 999 nM. Take `C[C@H](NC(=O)[C@H]1CCCO1)C(=O)Nc1ccc(-c2nnc(-c3ccc(NC(=O)[C@H](C)NC(=O)[C@H]4CCCO4)cc3)o2)cc1` [RK-35, (2R,2′R)-N,N′-(1,3,4-oxadiazole-2,5-diylbis(4,1-phenyleneimino((2S)-1-oxo-1,2-propanediyl)))ditetrahydro-2-furancarboxamide]: the EC50 (class symbols, read-out: EC50 Range against HCV 1b) was in the range of 1000 to 10000 nM. As for `O=C(Nc1ccc(-c2cnc(-c3ccc(NC(=O)[C@@H]4CCCN4C(=O)C4CCOC4)cc3)o2)cc1)[C@@H]1CCCN1C(=O)C1CCOC1` (stereo partly drawn) [XY-18, (2S,2′S)-N,N′-(1,3-oxazole-2,5-diyldi-4,1-phenylene)bis(1-(tetrahydro-3-furanylcarbonyl)-2-pyrrolidinecarboxamide)], the EC50 under setting [3] lay in the range of 4.57 to 99 nM.
